The test system of series [1] is Blumeria graminis f. sp. tritici (Erysiphe graminis f. sp. tritici). Nature of the series: Blumeria graminis f. sp. tritici / wheat / leaf disc preventative (powdery mildew on wheat). The series is classed as in vivo. Particulars: foliar, wheat leaf segments cv. Kanzler, inoculated 1 day after application, assessed 6-8 days after application, read-out: control of Blumeria graminis f. sp. tritici (percent disease control compared to untreated). The method, boiled down: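 Wheat cv. Kanzler leaf segments on agar were sprayed with formulated compound in water, then inoculated with powdery mildew 1 day after application. Incubation was at 20° C, 60% rh, 24 h dark then 12 h light/12 h dark. Percent disease control versus untreated was scored 6-8 days after application.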

For series [2], the system named is Puccinia recondita f. sp. tritici. Description: Puccinia recondita f. sp. tritici / wheat / leaf disc preventative (brown rust). Format: in vivo. Particulars: foliar, wheat leaf segments cv. Kanzler, inoculated 1 day after application, assessed 7-9 days after application, read-out: control of Puccinia recondita f. sp. tritici (percent disease control compared to untreated). The gist of the method: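 Leaf segments of wheat cv. Kanzler on agar were sprayed with diluted formulated compound and inoculated with spores 1 day later. Kept at 19° C, 75% rh, 12 h light/12 h dark. Percent disease control versus untreated assessed 7-9 days after application.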

Series [3] shares this test system. Nature of the series: Puccinia recondita f. sp. tritici / wheat / leaf disc curative (brown rust). Format: in vivo. Particulars: foliar, wheat leaf segments cv. Kanzler, compound applied 1 day after inoculation, assessed 6-8 days after application, read-out: control of Puccinia recondita f. sp. tritici (percent disease control compared to untreated). The method, boiled down:
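Curative test: leaf segments of wheat cv. Kanzler on agar were inoculated with spores and held dark at 19 °C, 75% rh; formulated compound in water was applied 1 day after inoculation. Segments were then kept at 19 °C, 75% rh under 12 h light/12 h dark, and percent disease control versus untreated was scored 6-8 days after application.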

The test system of another series is Phakopsora pachyrhizi. Nature of the series: Phakopsora pachyrhizi / soybean / preventative (soybean rust). Format: in vivo. The settings on record: foliar, soybean leaf disks, inoculated one day after application, assessed 12-14 days after application, read-out: control of Phakopsora pachyrhizi (percent disease control compared to untreated). The procedure: Phakopsora pachyrhizi/Soybean/Preventative (Soybean Rust) Soybean leaf disks are placed on water agar in multiwell plates (24-well format) and sprayed with the formulated test compound diluted in water. One day after application leaf discs are inoculated by spraying a spore suspension on the lower leaf surface. After an incubation period in a climate cabinet of 24-36 hours in darkness at 20° C. and 75% rh leaf disc are kept at 20° C. with 12 h light/day and 75% rh. The activity of a compound is assessed as percent disease control compared to untreated when an appropriate level of disease damage appears in untreated check leaf disks (12-14 days after application).

A word on the melting point: it is the temperature, or range, at which the solid turns liquid.

Structures are written as SMILES. Where only a bound is given, the exact number is not on record here.

In turn, `CCSCC(O)(c1cc(C)c(/N=C/N(C)CC)cc1OC)C(F)(F)F` (stereo not shown) [E.073, N-ethyl-N′-[4-[1-(ethylsulfanylmethyl)-2,2,2-trifluoro-1-hydroxy-ethyl]-5-methoxy-2-methyl-phenyl]-N-methyl-formamidine] showed a melting point of 81 to 83 °C. The pest or weed control at 200 ppm in series [1] was ≥ 80%. The pest or weed control at 200 ppm in series [2] is ≥ 80%.
Regarding `CCOCCOCC(O)(c1cc(C)c(/N=C/N(C)CC)cc1OC)C(F)(F)F` (stereo not shown) [E.020, N′-[4-[1-(2-ethoxyethoxymethyl)-2,2,2-trifluoro-1-hydroxy-ethyl]-5-methoxy-2-methyl-phenyl]-N-ethyl-N-methyl-formamidine], the pest or weed control at 200 ppm (in series [3]; in the series on Phakopsora pachyrhizi; in series [1]; in series [2]) was ≥ 80% in each case.
Take `CC#CCOCC(O)(c1cc(C)c(/N=C/N(C)CC)cc1OC)C(F)(F)F` (stereo not shown) [E.040, N′-[4-[1-(but-2-ynoxymethyl)-2,2,2-trifluoro-1-hydroxy-ethyl]-5-methoxy-2-methyl-phenyl]-N-ethyl-N-methyl-formamidine]: the pest or weed control at 200 ppm (in series [3]; in the series on Phakopsora pachyrhizi; in series [1]; in series [2]) was ≥ 80% throughout.
Turning to `CCN(C)/C=N/c1cc(OC)c(C(O)(C2CCC(OC)CC2)C(F)(F)F)cc1C` (stereo not shown) [E.075, N-ethyl-N′-[5-methoxy-2-methyl-4-[2,2,2-trifluoro-1-hydroxy-1-(4-methoxycyclohexyl)ethyl]phenyl]-N-methyl-formamidine], the pest or weed control at 200 ppm (in series [3]; in the series on Phakopsora pachyrhizi; in series [1]; in series [2]) was ≥ 80% each time.
On to `CCN(C)/C=N/c1cc(OC)c(C(O)(COCC2CCC2)C(F)(F)F)cc1C` (stereo not shown) [E.011, N′-[4-[1-(cyclobutylmethoxymethyl)-2,2,2-trifluoro-1-hydroxy-ethyl]-5-methoxy-2-methyl-phenyl]-N-ethyl-N-methyl-formamidine], for which the pest or weed control at 200 ppm (in series [3]; in the series with Phakopsora pachyrhizi; in series [1]; in series [2]) was ≥ 80% throughout.
Consider `CCCOC1CCC(C(O)(c2cc(C)c(/N=C/N(C)CC)cc2OC)C(F)(F)F)CC1` (stereo not shown) [E.079, N-ethyl-N′-[5-methoxy-2-methyl-4-[2,2,2-trifluoro-1-hydroxy-1-(4-propoxycyclohexyl)ethyl]phenyl]-N-methyl-formamidine], for which the pest or weed control at 200 ppm (in series [3]; in the series with Phakopsora pachyrhizi; in series [1]; in series [2]) was ≥ 80% each time.
As to `CCCOCC(O)(c1cc(C)c(/N=C/N(C)CC)cc1OC)C(F)(F)F` (stereo not shown) [E.014, N-ethyl-N′-[5-methoxy-2-methyl-4-[2,2,2-trifluoro-1-hydroxy-1-(propoxymethyl)ethyl]phenyl]-N-methyl-formamidine], the pest or weed control at 200 ppm (in series [3]; in the series with Phakopsora pachyrhizi; in series [1]; in series [2]) was ≥ 80% throughout.
Consider `CCN(C)/C=N/c1cc(OC)c(C(O)(CSc2ccc(F)cc2)C(F)(F)F)cc1C` (stereo not shown) [E.068, N-ethyl-N′-[5-methoxy-2-methyl-4-[2,2,2-trifluoro-1-[(4-fluorophenyl)sulfanylmethyl]-1-hydroxy-ethyl]phenyl]-N-methyl-formamidine], for which the pest or weed control at 200 ppm (in series [3]; in the series on Phakopsora pachyrhizi; in series [1]; in series [2]) was ≥ 80% throughout.

The record behind these values is patent publication US10925283B2, “Microbiocidal phenylamidine derivatives” (SYNGENTA PARTICIPATIONS AG, priority 2016, dated 2021).
